Assay results reported in PubChem BioAssay AID256 (DTP/NCI, 2004).
Where “and” joins values, the source holds several entries; their conditions need not be identical. Identical values can stand only once. Inconclusive results and toxic doses are left out.

Test system: CD2F1 mice, L1210 leukemia ip, survival T/C
Assay: NCI In Vivo Anticancer Drug Screen. Data for tumor model L1210 Leukemia (intraperitoneal) in CD2F1 (CDF1) mice
Settings: higher = longer survival
Summary of the method: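 Tumor-bearing mice (transplanted tumor) were split into treated and vehicle control groups, and the measured endpoint of each treated group was divided by that of its vehicle controls.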

[1] = endpoint: mean survival time, dose: 100.0 mg/kg/injection, schedule: Q01DX001 (ip), vehicle: saline
[2] = endpoint: mean survival time, dose: 200.0 mg/kg/injection, schedule: Q01DX001 (ip), vehicle: saline
[3] = endpoint: mean survival time, dose: 400.0 mg/kg/injection, schedule: Q01DX001 (ip), vehicle: saline
[4] = endpoint: mean survival time, dose: 100.0 mg/kg/injection, schedule: Q01DX009 (ip), vehicle: saline with Tween-80
[5] = endpoint: mean survival time, dose: 200.0 mg/kg/injection, schedule: Q01DX009 (ip), vehicle: saline with Tween-80
[6] = endpoint: mean survival time, dose: 50.0 mg/kg/injection, schedule: Q01DX001 (ip), vehicle: Klucel (hydroxypropylcellulose) (HPC)
[7] = endpoint: mean survival time, dose: 100.0 mg/kg/injection, schedule: Q01DX001 (ip), vehicle: Klucel (hydroxypropylcellulose) (HPC)
[8] = endpoint: mean survival time, dose: 200.0 mg/kg/injection, schedule: Q01DX001 (ip), vehicle: Klucel (hydroxypropylcellulose) (HPC)
[9] = endpoint: mean survival time, dose: 100.0 mg/kg/injection, schedule: Q01DX009 (ip), vehicle: saline
[10] = endpoint: mean survival time, dose: 200.0 mg/kg/injection, schedule: Q01DX009 (ip), vehicle: saline

Structure (SMILES): O=NN(CCBr)C(=O)Nc1ccccc1
- T/C (endpoint: mean survival time, dose: 9.0 mg/kg/injection, schedule: Q01DX Z (ip), vehicle: carboxymethylcellulose (CMC)): 150 % of control
- T/C (endpoint: mean survival time, dose: 18.0 mg/kg/injection, schedule: Q01DX Z (ip), vehicle: carboxymethylcellulose (CMC)): 162 % of control
- T/C (endpoint: mean survival time, dose: 25.0 mg/kg/injection, schedule: Q01DX Z (ip), vehicle: carboxymethylcellulose (CMC)): 158 % of control
- T/C (endpoint: mean survival time, dose: 37.0 mg/kg/injection, schedule: Q01DX Z (ip), vehicle: carboxymethylcellulose (CMC)): 183 % of control
- T/C (endpoint: mean survival time, dose: 75.0 mg/kg/injection, schedule: Q01DX Z (ip), vehicle: carboxymethylcellulose (CMC)): 115 % of control
- T/C (endpoint: mean survival time, dose: 100.0 mg/kg/injection, schedule: Q01DX Z (ip), vehicle: carboxymethylcellulose (CMC)): 103 % of control
- T/C (endpoint: mean survival time, dose: 150.0 mg/kg/injection, schedule: Q01DX Z (ip), vehicle: carboxymethylcellulose (CMC)): 90 % of control

Structure (SMILES): CC(=O)Nc1ccc(/C=C2\N=C(c3cccc([N+](=O)[O-])c3)OC2=O)cc1
- T/C (endpoint: mean survival time, dose: 100.0 mg/kg/injection, schedule: Q04DX002 (ip), vehicle: saline with Tween-80): 100 % of control
- T/C (endpoint: mean survival time, dose: 200.0 mg/kg/injection, schedule: Q04DX002 (ip), vehicle: saline with Tween-80): 100 % of control
- T/C (endpoint: mean survival time, dose: 400.0 mg/kg/injection, schedule: Q04DX002 (ip), vehicle: saline with Tween-80): 91 % of control

Structure (SMILES): CC1=CSC2=NC(=O)CCN12
- T/C [1]: 93 % of control
- T/C [2]: 100 % of control
- T/C [3]: 90 % of control

Structure (SMILES): CC(=O)OCC1OC(OC(C)=O)C(On2nnc3c(-c4ccccc4)c(C)nn32)C(OC(C)=O)C1OC(C)=O (centres undefined)
- T/C (endpoint: median survival time, dose: 12.5 mg/kg/injection, schedule: Q01DX005 (ip), vehicle: Klucel (hydroxypropylcellulose) (HPC)): 93 % of control
- T/C (endpoint: median survival time, dose: 25.0 mg/kg/injection, schedule: Q01DX005 (ip), vehicle: Klucel (hydroxypropylcellulose) (HPC)): 95 % of control
- T/C (endpoint: median survival time, dose: 50.0 mg/kg/injection, schedule: Q01DX005 (ip), vehicle: Klucel (hydroxypropylcellulose) (HPC)): 97 % of control
- T/C (endpoint: median survival time, dose: 100.0 mg/kg/injection, schedule: Q01DX005 (ip), vehicle: Klucel (hydroxypropylcellulose) (HPC)): 95 % of control

Structure (SMILES): CCCCCCCCCCCC(=O)OCCN(C=O)C[n+]1ccccc1
- T/C (endpoint: mean survival time, dose: 100.0 mg/kg/injection, schedule: Q04DX002 (ip), vehicle: saline): 101 % of control

Structure (SMILES): CCNc1nc(Cl)nc(NC(C)C)n1
- T/C [4]: 93 % of control
- T/C (endpoint: mean survival time, dose: 100.0 mg/kg/injection, schedule: Q04DX003 (ip), vehicle: saline): 95 % of control
- T/C [5]: 98 % of control
- T/C (endpoint: mean survival time, dose: 200.0 mg/kg/injection, schedule: Q04DX003 (ip), vehicle: saline): 101 % of control
- T/C (endpoint: mean survival time, dose: 400.0 mg/kg/injection, schedule: Q04DX003 (ip), vehicle: saline): 92 % of control

Structure (SMILES): COc1ccc2c(NCCCCCCCCNc3c4ccccc4nc4cc(OC)ccc34)c3ccccc3nc2c1
- T/C (endpoint: mean survival time, dose: 0.47 mg/kg/injection, schedule: Q01DX009 (ip), vehicle: distilled water + alcohol): 116 % of control
- T/C (endpoint: mean survival time, dose: 0.94 mg/kg/injection, schedule: Q01DX009 (ip), vehicle: distilled water + alcohol): 120 % of control and 112 % of control
- T/C (endpoint: mean survival time, dose: 1.87 mg/kg/injection, schedule: Q01DX009 (ip), vehicle: distilled water + alcohol): 120 % of control
- T/C (endpoint: mean survival time, dose: 1.88 mg/kg/injection, schedule: Q01DX009 (ip), vehicle: distilled water + alcohol): 113 % of control and 112 % of control
- T/C (endpoint: median survival time, dose: 0.5 mg/kg/injection, schedule: Q01DX009 (ip), vehicle: distilled water + alcohol): 120 % of control
- T/C (endpoint: median survival time, dose: 1.0 mg/kg/injection, schedule: Q01DX009 (ip), vehicle: distilled water + alcohol): 118 % of control
- T/C (endpoint: median survival time, dose: 2.0 mg/kg/injection, schedule: Q01DX009 (ip), vehicle: distilled water + alcohol): 121 % of control
- T/C (endpoint: median survival time, dose: 4.0 mg/kg/injection, schedule: Q01DX009 (ip), vehicle: distilled water + alcohol): 124 % of control

Structure (SMILES): CNC(=O)Nc1nncs1
- T/C [4]: 97 % of control
- T/C [5]: 104 % of control
- T/C (endpoint: mean survival time, dose: 400.0 mg/kg/injection, schedule: Q01DX009 (ip), vehicle: saline with Tween-80): 92 % of control

Structure (SMILES): [N-]=[N+]=NC1CC(n2ccc(N)nc2=O)OC1CO (centres undefined)
- T/C (endpoint: median survival time, dose: 12.5 mg/kg/injection, schedule: Q01DX005 (ip), vehicle: saline): 113 % of control
- T/C (endpoint: median survival time, dose: 25.0 mg/kg/injection, schedule: Q01DX005 (ip), vehicle: saline): 109 % of control
- T/C (endpoint: median survival time, dose: 50.0 mg/kg/injection, schedule: Q01DX005 (ip), vehicle: saline): 98 % of control
- T/C (endpoint: median survival time, dose: 100.0 mg/kg/injection, schedule: Q01DX005 (ip), vehicle: saline): 107 % of control
- T/C (endpoint: median survival time, dose: 200.0 mg/kg/injection, schedule: Q01DX005 (ip), vehicle: saline): 103 % of control

Structure (SMILES): Cc1cc(=O)[nH]c(=O)[nH]1
- T/C [6]: 95 % of control
- T/C (endpoint: mean survival time, dose: 50.0 mg/kg/injection, schedule: Q01DX009 (ip), vehicle: Klucel (hydroxypropylcellulose) (HPC)): 98 % of control
- T/C [7]: 104 % of control
- T/C (endpoint: mean survival time, dose: 100.0 mg/kg/injection, schedule: Q01DX009 (ip), vehicle: Klucel (hydroxypropylcellulose) (HPC)): 98 % of control
- T/C [8]: 98 % of control
- T/C (endpoint: mean survival time, dose: 200.0 mg/kg/injection, schedule: Q01DX009 (ip), vehicle: Klucel (hydroxypropylcellulose) (HPC)): 102 % of control

Structure (SMILES): CN(C)P(=O)(OCCCOCc1ccccc1)N(CCCl)CCCl (centres undefined)
- T/C (endpoint: mean survival time, dose: 25.0 mg/kg/injection, schedule: Q01DX001 (ip), vehicle: other): 93 % of control
- T/C (endpoint: mean survival time, dose: 50.0 mg/kg/injection, schedule: Q01DX001 (ip), vehicle: other): 101 % of control
- T/C (endpoint: mean survival time, dose: 100.0 mg/kg/injection, schedule: Q01DX001 (ip), vehicle: other): 91 % of control
- T/C (endpoint: mean survival time, dose: 200.0 mg/kg/injection, schedule: Q01DX001 (ip), vehicle: other): 90 % of control
- T/C (endpoint: mean survival time, dose: 400.0 mg/kg/injection, schedule: Q01DX001 (ip), vehicle: other): 87 % of control

Structure (SMILES): CC(C)(C)C=O
- T/C [9]: 95 % of control
- T/C [10]: 102 % of control
- T/C (endpoint: mean survival time, dose: 400.0 mg/kg/injection, schedule: Q01DX009 (ip), vehicle: saline): 96 % of control

Structure (SMILES): Nc1ccccc1-c1nc2ccncc2[nH]1
- T/C (endpoint: mean survival time, dose: 75.0 mg/kg/injection, schedule: Q01DX001 (ip), vehicle: saline): 100 % of control
- T/C (endpoint: mean survival time, dose: 150.0 mg/kg/injection, schedule: Q01DX001 (ip), vehicle: saline): 98 % of control

Structure (SMILES): CCOC(=O)Nc1cc2c(c(N)n1)N=C(c1ccc3ccccc3c1)CN2
- T/C (endpoint: median survival time, dose: 0.93 mg/kg/injection, schedule: Q01DX009 (ip), vehicle: saline with Tween-80): 122 % of control
- T/C (endpoint: median survival time, dose: 1.0 mg/kg/injection, schedule: Q01DX009 (ip), vehicle: saline with Tween-80): 112 % of control
- T/C (endpoint: median survival time, dose: 1.87 mg/kg/injection, schedule: Q01DX009 (ip), vehicle: saline with Tween-80): 113 % of control
- T/C (endpoint: median survival time, dose: 3.75 mg/kg/injection, schedule: Q01DX009 (ip), vehicle: saline with Tween-80): 121 % of control
- T/C (endpoint: median survival time, dose: 15.0 mg/kg/injection, schedule: Q01DX009 (ip), vehicle: saline with Tween-80): 113 % of control
- T/C (endpoint: median survival time, dose: 16.0 mg/kg/injection, schedule: Q01DX009 (ip), vehicle: saline with Tween-80): 114 % of control

Structure (SMILES): C=CC(=O)NC(C)(C)CC(C)=O
- T/C (endpoint: mean survival time, dose: 100.0 mg/kg/injection, schedule: Q01DX001 (ip), vehicle: saline with Tween-80): 98 % of control
- T/C [1]: 103 % of control
- T/C [9]: 100 % of control
- T/C (endpoint: mean survival time, dose: 200.0 mg/kg/injection, schedule: Q01DX001 (ip), vehicle: saline with Tween-80): 102 % of control
- T/C [2]: 97 % of control
- T/C [10]: 100 % of control
- T/C (endpoint: mean survival time, dose: 400.0 mg/kg/injection, schedule: Q01DX001 (ip), vehicle: saline with Tween-80): 102 % of control
- T/C [3]: 102 % of control

Structure (SMILES): O=C[N]([Hg][Cl])c1ccccc1
- T/C (endpoint: mean survival time, dose: 6.25 mg/kg/injection, schedule: Q01DX009 (ip), vehicle: saline with Tween-80): 86 % of control

Structure (SMILES): CC(=O)Oc1ccc(/C=C2\CCOC2=O)cc1
- T/C (endpoint: mean survival time, dose: 7.82 mg/kg/injection, schedule: Q01DX005 (ip), vehicle: Klucel (hydroxypropylcellulose) (HPC)): 112 % of control
- T/C (endpoint: mean survival time, dose: 15.63 mg/kg/injection, schedule: Q01DX005 (ip), vehicle: Klucel (hydroxypropylcellulose) (HPC)): 101 % of control
- T/C (endpoint: mean survival time, dose: 31.25 mg/kg/injection, schedule: Q01DX005 (ip), vehicle: Klucel (hydroxypropylcellulose) (HPC)): 106 % of control
- T/C (endpoint: mean survival time, dose: 62.5 mg/kg/injection, schedule: Q01DX005 (ip), vehicle: Klucel (hydroxypropylcellulose) (HPC)): 107 % of control
- T/C (endpoint: mean survival time, dose: 125.0 mg/kg/injection, schedule: Q01DX005 (ip), vehicle: Klucel (hydroxypropylcellulose) (HPC)): 109 % of control
- T/C (endpoint: mean survival time, dose: 250.0 mg/kg/injection, schedule: Q01DX005 (ip), vehicle: Klucel (hydroxypropylcellulose) (HPC)): 109 % of control

Structure (SMILES): c1coc(-c2nc3ccccc3s2)c1
- T/C [6]: 96 % of control
- T/C [7]: 93 % of control and 95 % of control
- T/C [8]: 120 % of control and 90 % of control
